Data taken from article PMC7377239, “Cardiovascular Effects of Polychlorinated Biphenyls and Their Major Metabolites” (Environmental Health Perspectives, 2020).
Where a name gives a salt, the structure may show the parent alone. Read-outs that look alike come from different tables or passages of the source.

System: iCell cardiomyocytes (human iPSC-derived cardiomyocytes)
Assay: Intracellular Ca2+ flux / beating parameters in iCell cardiomyocytes (FLIPR tetra), 90 min or 24 h
Format: cell-based
Settings: for activity at 0.01 µM / activity at 0.1 µM / activity at 1 µM / activity at 10 µM / activity at 100 µM: Homo sapiens, Cardiomyocyte, 0.00 µM = 100.00; for activity at 0.1 µM: 0.10 µM
How it was run: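 Gelatin-plated iCell cardiomyocytes (5,000/well) were dye-loaded for 2 h at 37 °C, then exposed for 90 min or 24 h to PCBs/metabolites (5× plates at 0.05–500 µM; 0.5% DMSO final) in triplicate. Ca2+ flux was read for 100 s at 8 Hz and 37 °C. Peak height, frequency, spacing CV and decay/rise ratio were vehicle-normalized and fitted with a four-parameter logistic model, with POD set at 1 SD of vehicle.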

[1] = 1.5 h, read-out: cm.amp.avg.90min
[2] = 1.5 h, read-out: cm.amp.cv.90min
[3] = 1.5 h, read-out: cm.decay.rise.90min
[4] = 1.5 h, read-out: cm.spacing.cv.90min
[5] = 24 h, read-out: cm.amp.avg.24hrs
[6] = 24 h, read-out: cm.amp.cv.24hrs
[7] = 24 h, read-out: cm.decay.rise.24hrs
[8] = 24 h, read-out: cm.spacing.cv.24hrs

Oc1ccccc1-c1ccc(Cl)cc1 [2'-OH PCB3]
activity at 0.01 µM [1]: 95.7%
activity at 0.01 µM [2]: 112%
activity at 0.01 µM (1.5 h, read-out: cm.bpm.90min): 102%
activity at 0.01 µM [3]: 98.2%
activity at 0.01 µM [4]: 143%
activity at 0.1 µM [1]: 105%
activity at 0.1 µM [2]: 96.5%
activity at 0.1 µM (1.5 h, read-out: cm.bpm.90min): 102%
activity at 0.1 µM [3]: 98.7%
activity at 0.1 µM [4]: 110%
activity at 1 µM [1]: 102%
activity at 1 µM [2]: 116%
activity at 1 µM (1.5 h, read-out: cm.bpm.90min): 104%
activity at 1 µM [3]: 97.6%
activity at 1 µM [4]: 106%
activity at 10 µM [1]: 0%
activity at 10 µM [2]: 0%
activity at 10 µM (1.5 h, read-out: cm.bpm.90min): 0%
activity at 10 µM [3]: 0%
activity at 10 µM [4]: 0%
activity at 100 µM [1]: 0%
activity at 100 µM [2]: 0%
activity at 100 µM (1.5 h, read-out: cm.bpm.90min): 0%
activity at 100 µM [3]: 0%
activity at 100 µM [4]: 0%
activity at 0.01 µM [5]: 112%
activity at 0.01 µM [6]: 138%
activity at 0.01 µM (24 h, read-out: cm.bpm.24hrs): 118%
activity at 0.01 µM [7]: 82.1%
activity at 0.01 µM [8]: 120%
activity at 0.1 µM [5]: 115%
activity at 0.1 µM [6]: 126%
activity at 0.1 µM (24 h, read-out: cm.bpm.24hrs): 116%
activity at 0.1 µM [7]: 92.5%
activity at 0.1 µM [8]: 111%
activity at 1 µM [5]: 124%
activity at 1 µM [6]: 94.2%
activity at 1 µM (24 h, read-out: cm.bpm.24hrs): 95.5%
activity at 1 µM [7]: 112%
activity at 1 µM [8]: 106%
activity at 10 µM [5]: 104%
activity at 10 µM [6]: 140%
activity at 10 µM (24 h, read-out: cm.bpm.24hrs): 121%
activity at 10 µM [7]: 82.7%
activity at 10 µM [8]: 111%
activity at 100 µM [5]: 0%
activity at 100 µM [6]: 0%
activity at 100 µM (24 h, read-out: cm.bpm.24hrs): 0%
activity at 100 µM [7]: 0%
activity at 100 µM [8]: 0%

Clc1ccc(-c2ccccc2)cc1 [PCB 3, 4-chlorobiphenyl]
inotropic effect (cell beating parameters) (iPSC-CMs, concentration-response 0.01-100 μM, 90 min and 24 h): positive inotropic effects

O=S(=O)(O)Oc1ccc(-c2cccc(Cl)c2)cc1Cl [4-yl PCB 11 sulfate]
activity at 0.01 µM [1]: 98.2%
activity at 0.01 µM [2]: 88.2%
activity at 0.01 µM (1.5 h, read-out: cm.bpm.90min): 97.8%
activity at 0.01 µM [3]: 98.1%
activity at 0.01 µM [4]: 99.6%
activity at 0.1 µM [1]: 93.1%
activity at 0.1 µM [2]: 97.2%
activity at 0.1 µM (1.5 h, read-out: cm.bpm.90min): 100%
activity at 0.1 µM [3]: 102%
activity at 0.1 µM [4]: 99%
activity at 1 µM [1]: 99.5%
activity at 1 µM [2]: 116%
activity at 1 µM (1.5 h, read-out: cm.bpm.90min): 99.1%
activity at 1 µM [3]: 99.7%
activity at 1 µM [4]: 103%
activity at 10 µM [1]: 96.9%
activity at 10 µM [2]: 93.4%
activity at 10 µM (1.5 h, read-out: cm.bpm.90min): 99.1%
activity at 10 µM [3]: 98.1%
activity at 10 µM [4]: 96.5%
activity at 100 µM [1]: 45.7%
activity at 100 µM [2]: 62.5%
activity at 100 µM (1.5 h, read-out: cm.bpm.90min): 15.1%
activity at 100 µM [3]: 39.8%
activity at 100 µM [4]: 107%
activity at 0.01 µM [5]: 98.1%
activity at 0.01 µM [6]: 94.2%
activity at 0.01 µM (24 h, read-out: cm.bpm.24hrs): 97.4%
activity at 0.01 µM [7]: 110%
activity at 0.01 µM [8]: 104%
activity at 0.1 µM [5]: 78.9%
activity at 0.1 µM [6]: 34.3%
activity at 0.1 µM (24 h, read-out: cm.bpm.24hrs): 46.8%
activity at 0.1 µM [7]: 51.8%
activity at 0.1 µM [8]: 46.3%
activity at 1 µM [5]: 88.9%
activity at 1 µM [6]: 119%
activity at 1 µM (24 h, read-out: cm.bpm.24hrs): 93.6%
activity at 1 µM [7]: 100%
activity at 1 µM [8]: 87.1%
activity at 10 µM [5]: 88.7%
activity at 10 µM [6]: 119%
activity at 10 µM (24 h, read-out: cm.bpm.24hrs): 93.6%
activity at 10 µM [7]: 104%
activity at 10 µM [8]: 98.9%
activity at 100 µM [5]: 0%
activity at 100 µM [6]: 0%
activity at 100 µM (24 h, read-out: cm.bpm.24hrs): 0%
activity at 100 µM [7]: 0%
activity at 100 µM [8]: 0%

COc1ccc(-c2cccc(Cl)c2)cc1Cl [4-OMe PCB11]
activity at 0.01 µM [1]: 85.7%
activity at 0.01 µM [2]: 106%
activity at 0.01 µM (1.5 h, read-out: cm.bpm.90min): 99.1%
activity at 0.01 µM [3]: 99.7%
activity at 0.01 µM [4]: 111%
activity at 0.1 µM [1]: 97.2%
activity at 0.1 µM [2]: 98.8%
activity at 0.1 µM (1.5 h, read-out: cm.bpm.90min): 105%
activity at 0.1 µM [3]: 99.7%
activity at 0.1 µM [4]: 106%
activity at 1 µM [1]: 106%
activity at 1 µM [2]: 101%
activity at 1 µM (1.5 h, read-out: cm.bpm.90min): 96.5%
activity at 1 µM [3]: 101%
activity at 1 µM [4]: 145%
activity at 10 µM [1]: 94.1%
activity at 10 µM [2]: 109%
activity at 10 µM (1.5 h, read-out: cm.bpm.90min): 127%
activity at 10 µM [3]: 94%
activity at 10 µM [4]: 102%
activity at 100 µM [1]: 0%
activity at 100 µM [2]: 0%
activity at 100 µM (1.5 h, read-out: cm.bpm.90min): 0%
activity at 100 µM [3]: 0%
activity at 100 µM [4]: 0%
activity at 0.01 µM [5]: 121%
activity at 0.01 µM [6]: 82.2%
activity at 0.01 µM (24 h, read-out: cm.bpm.24hrs): 110%
activity at 0.01 µM [7]: 94.8%
activity at 0.01 µM [8]: 108%
activity at 0.1 µM [5]: 79.3%
activity at 0.1 µM [6]: 98.7%
activity at 0.1 µM (24 h, read-out: cm.bpm.24hrs): 103%
activity at 0.1 µM [7]: 98.9%
activity at 0.1 µM [8]: 101%
activity at 1 µM [5]: 107%
activity at 1 µM [6]: 95.6%
activity at 1 µM (24 h, read-out: cm.bpm.24hrs): 90.7%
activity at 1 µM [7]: 111%
activity at 1 µM [8]: 98.4%
activity at 10 µM [5]: 92.1%
activity at 10 µM [6]: 119%
activity at 10 µM (24 h, read-out: cm.bpm.24hrs): 123%
activity at 10 µM [7]: 109%
activity at 10 µM [8]: 118%
activity at 100 µM [5]: 0%
activity at 100 µM [6]: 0%
activity at 100 µM (24 h, read-out: cm.bpm.24hrs): 0%
activity at 100 µM [7]: 0%
activity at 100 µM [8]: 0%
